{"source": "paper PMC8597734", "about": "(Antimicrobial Agents and Chemotherapy, 2021)", "key": {"[1]": {"tested_on": "M. abscessus subsp. massiliense CCUG 48898T", "experiment": "microbe, parasite or virus in culture", "assay_type": "cell-based, Mycobacterium abscessus", "conditions": "Mycobacteroides abscessus, 72 h"}, "[2]": {"experiment": "AMP (artificial membrane permeability) assay", "assay_type": "in vitro ADME", "conditions": "PAMPA, pH 7.4", "experimental": "An 8% L-a-phosphatidylcholine (EPC) in 1% cholesterol decane solution and a 1.8% EPC in cholesterol decane solution were prepared. The lipid solution was aliquoted into 4 ml capped vials, sealed with parafilm and stored in −20°C freezer. The lipid solution was then transferred from 4 ml vial into a 96-well half area plate (130 μl/well) for daily assay usage. An additional 50 mM phosphate buffer with 0.5% encapsin, pH at 7.4 was prepared. The assay was run by the Biomek FX and Biomek software. The assay procedure is written under the Biomek software. For one batch assay, it can test two 96-well sample plates with at least one standard on each sample plate. The total assay time was about 4 h. 3.5 μl of lipid solution were added to the filler plate, shaken for 12 s, and 250 μl of buffer were added to donor side and 100 μl to the receiver side. The assay plate was shaken for 45 min before adding the compounds. The test compounds (2.5 μl) were added to the donor side. The assay was run as replicates: Assay plates 1 and 2 tested the sample plate 1; assay plates 3 and 4 tested the sample plate 2. The assay plates were then incubated and shaken for 3 h at room temperature. The assay samples were transferred to the HPLC analysis plates and 100 μl of receiver solution were aspirated and transferred to the receiver for analysis. […] Compound concentration was measured by HPLC at different time points."}, "[3]": {"tested_on": "M. abscessus Bamboo RM1 (GyrA M129K)", "experiment": "microbe, parasite or virus in culture", "assay_type": "cell-based, Mycobacterium abscessus"}, "[4]": {"experiment": "Mouse oral pharmacokinetics", "assay_type": "in vivo", "conditions": "for concentration at 24 h / AUC(0-t) / half-life: female; for concentration at 24 h: CD-1, mouse, below limit of quantitation (LOQ), read-out: plasma concentration at the 24h time point; for AUC(0-t) / half-life: mouse", "experimental": "All animal studies were ethically reviewed and carried out in accordance with the Institutional Animal Care and Use Committee of Hackensack Meridian Health. Six-week-old CD-1 female mice (20–25 g) were used in pharmacokinetic studies. Groups of 3 mice received a single oral dose of EC/11716 formulated in 0.4% methylcellulose, at either 50, 200 or 400 mg/kg. Aliquots of 20 μl of blood were collected from the lateral tail vein by serial puncture from each mouse at 0.5, 1, 3, 5, 7 and 24h post dose in K2EDTA tubes. Plasma was recovered after centrifugation and stored at −80°C until analyzed by high pressure liquid chromatography coupled to tandem mass spectrometry.\nNeat 1 mg/ml DMSO stocks of EC/11716 were serial diluted in 50/50 Acetonitrile water to create standard curves and quality control spiking solutions. Standards and QCs were created by adding 10μls of spiking solutions to 90μls of drug free plasma (CD-1 K2EDTA Mouse, Bioreclamation IVT). 10μls of control, standard, QC, or study sample were added to 100 μl of Acetonitrile/Methanol 50/50 protein precipitation solvent containing 10 ng/ml of the internal standard Verapamil (Sigma-Aldrich). Extracts were vortexed for 5 min and centrifuged at 4000 RPM for 5 min. 75 μl of supernatant was transferred for HPLC-MS/MS analysis and diluted with 75 μl of Milli-Q deionized water.\nLC-MS/MS analysis was performed on a Sciex Applied Biosystems Qtrap 6500+ triple-quadrupole mass spectrometer coupled to a Shimadzu Nexera X2 UHPLC system to quantify each drug in plasma. Chromatography was performed on a Phenomenex Luna Omega column (2.1 × 100 mm; particle size, 3 μm) using a reverse phase gradient. Milli-Q deionized water with 0.1% formic acid was used for the aqueous mobile phase and 0.1% formic acid in acetonitrile for the organic mobile phase. Multiple-reaction monitoring of parent/daughter transitions in electrospray positive-ionization mode was used to quantify the analytes. The following MRM transitions were used for EC/11716 (458.09/203.10) and Verapamil (455.40/165.00). Sample analysis was accepted if the concentrations of the quality control samples were within 20% of the nominal concentration. Data processing was performed using Analyst software (version 1.6.2; Applied Biosystems Sciex)."}, "[5]": {"tested_on": "M. abscessus subsp. abscessus M199", "experiment": "microbe, parasite or virus in culture", "assay_type": "cell-based, Mycobacterium abscessus", "conditions": "Mycobacteroides abscessus, 72 h"}, "[6]": {"tested_on": "anaerobic, nonreplicating M. abscessus Bamboo", "experiment": "MBC determination under anaerobic conditions", "assay_type": "cell-based, Mycobacterium abscessus", "conditions": "48 h drug exposure"}, "[7]": {"tested_on": "M. avium 11", "experiment": "microbe, parasite or virus in culture", "assay_type": "cell-based", "conditions": "Mycobacterium avium, 11, 96 h"}, "[8]": {"experiment": "Tolerability in mice", "assay_type": "in vivo, mouse", "conditions": "tolerated at doses up to"}, "[9]": {"tested_on": "M. abscessus subsp. bolletii M506", "experiment": "microbe, parasite or virus in culture", "assay_type": "cell-based, Mycobacterium abscessus", "conditions": "Mycobacteroides abscessus, 72 h"}, "[10]": {"tested_on": "M. tuberculosis H37Rv ATCC 27294", "experiment": "microbe, parasite or virus in culture", "assay_type": "cell-based", "conditions": "Mycobacterium tuberculosis, 168 h"}, "[11]": {"tested_on": "M. abscessus Bamboo RM4 (GyrA D91G)", "experiment": "microbe, parasite or virus in culture", "assay_type": "cell-based, Mycobacterium abscessus"}, "[12]": {"tested_on": "M. abscessus subsp. bolletii CCUG 50184T", "experiment": "microbe, parasite or virus in culture", "assay_type": "cell-based, Mycobacterium abscessus", "conditions": "Mycobacteroides abscessus, 72 h"}, "[13]": {"tested_on": "M. abscessus Bamboo"}, "[14]": {"tested_on": "M. abscessus subsp. abscessus K21", "experiment": "microbe, parasite or virus in culture", "assay_type": "cell-based, Mycobacterium abscessus", "conditions": "Mycobacteroides abscessus, 72 h"}, "[15]": {"target": "T1, human serum albumin (Homo sapiens, UniProt P02768)", "T1 construct": "purchased Chiral Technologies Ltd., France", "T1 sequence (P02768 25-609)": "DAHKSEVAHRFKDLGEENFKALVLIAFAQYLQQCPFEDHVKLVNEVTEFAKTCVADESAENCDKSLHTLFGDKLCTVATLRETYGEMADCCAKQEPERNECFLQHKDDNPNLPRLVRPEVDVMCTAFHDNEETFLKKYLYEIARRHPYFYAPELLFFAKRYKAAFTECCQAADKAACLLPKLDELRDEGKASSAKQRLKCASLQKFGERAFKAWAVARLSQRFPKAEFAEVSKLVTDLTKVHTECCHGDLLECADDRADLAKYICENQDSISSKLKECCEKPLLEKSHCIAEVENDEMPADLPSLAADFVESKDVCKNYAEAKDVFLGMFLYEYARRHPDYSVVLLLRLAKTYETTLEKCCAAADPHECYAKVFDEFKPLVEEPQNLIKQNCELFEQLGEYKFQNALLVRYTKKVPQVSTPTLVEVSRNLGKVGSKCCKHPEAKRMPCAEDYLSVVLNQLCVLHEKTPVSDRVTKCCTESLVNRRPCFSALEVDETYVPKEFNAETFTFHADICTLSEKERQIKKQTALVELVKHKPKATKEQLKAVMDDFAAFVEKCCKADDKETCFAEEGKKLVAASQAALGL", "experiment": "Drug binding to human serum albumin (HSA HPLC column)", "assay_type": "in vitro ADME", "conditions": "immobilized human serum albumin HPLC column, pH 7.4, read-out: Protein binding (converted)"}, "[16]": {"conditions": "mice, oral 400 mg/kg, from PK profiles and potency data"}}, "note": "Where two headings read alike, the source gives them in different places.", "data": [{"smiles": "COc1cnc2ccc(=O)n(CCN3CCC(NCc4cnc(CO)c(Cl)c4)CC3)c2c1", "note": "[EC/11716]", "values": [{"measurement": "MIC", "setting": "[1]", "value": 4.7, "unit": "µM"}, {"measurement": "Papp at 3 h", "setting": "[2]", "value": 16, "unit": "×10⁻⁶ cm/s"}, {"measurement": "MIC", "setting": "[3]", "value": ">100", "unit": "µM"}, {"measurement": "MIC", "setting": "[3]; Mycobacteroides abscessus", "value": "> 100", "unit": "µM"}, {"measurement": "DNAUC[0-24]_50 mg/kg", "setting": "[4]; CD-1 mice, oral 50 mg/kg, dose-normalized AUC, mean (SD)", "value": "58 (16) ng*h/ml per mg/kg"}, {"measurement": "Tmax_50 mg/kg", "setting": "[4]; CD-1 mice, oral 50 mg/kg, range of values", "value": "0.5 to 1.0", "unit": "h"}, {"measurement": "DNAUC[0-24]_200 mg/kg", "setting": "[4]; CD-1 mice, oral 200 mg/kg, dose-normalized AUC, mean (SD)", "value": "167 (24) ng*h/ml per mg/kg"}, {"measurement": "Tmax_200 mg/kg", "setting": "[4]; CD-1 mice, oral 200 mg/kg, range of values", "value": "0.5−1.0 h"}, {"measurement": "DNAUC[0-24]_400 mg/kg", "setting": "[4]; CD-1 mice, oral 400 mg/kg, dose-normalized AUC, mean (SD)", "value": "202 (8) ng*h/ml per mg/kg"}, {"measurement": "Tmax_400 mg/kg", "setting": "[4]; CD-1 mice, oral 400 mg/kg, range of values", "value": "0.5 to 1.0", "unit": "h"}, {"measurement": "Cmax_50 mg/kg", "setting": "[4]; CD-1 mice, single oral dose 50 mg/kg, plasma, mean (SD)", "value": "632 (430) ng/ml"}, {"measurement": "Cmax_200 mg/kg", "setting": "[4]; CD-1 mice, single oral dose 200 mg/kg, plasma, mean (SD)", "value": "7,177 (618) ng/ml"}, {"measurement": "Cmax_400 mg/kg", "setting": "[4]; CD-1 mice, single oral dose 400 mg/kg, plasma, mean (SD)", "value": "16,767 (8,281) ng/ml"}, {"measurement": "concentration at 24 h", "setting": "[4]; plasma, mice, oral 50 mg/kg", "value": "< 20", "unit": "ng/mL"}, {"measurement": "concentration at 24 h", "setting": "[4]; plasma, mice, oral 200 mg/kg", "value": "< 20", "unit": "ng/mL"}, {"measurement": "AUC(0-t)", "setting": "[4]; plasma, CD-1 mice, oral 50 mg/kg, mean (SD), read-out: AUC[0-24]_50 mg/kg", "value": 2900, "unit": "ng·h/mL"}, {"measurement": "half-life", "setting": "[4]; plasma, CD-1 mice, oral 50 mg/kg, mean (SD), read-out: Elimination T1/2 _50 mg/kg (converted)", "value": 2.7, "unit": "h"}, {"measurement": "AUC(0-t)", "setting": "[4]; plasma, CD-1 mice, oral 200 mg/kg, mean (SD), read-out: AUC[0-24]_200 mg/kg", "value": 33400, "unit": "ng·h/mL"}, {"measurement": "half-life", "setting": "[4]; plasma, CD-1 mice, oral 200 mg/kg, mean (SD), read-out: Elimination T1/2 _200 mg/kg (converted)", "value": 1.7, "unit": "h"}, {"measurement": "AUC(0-t)", "setting": "[4]; plasma, CD-1 mice, oral 400 mg/kg, mean (SD), read-out: AUC[0-24]_400 mg/kg", "value": 80700, "unit": "ng·h/mL"}, {"measurement": "half-life", "setting": "[4]; plasma, CD-1 mice, oral 400 mg/kg, mean (SD), read-out: Elimination T1/2 _400 mg/kg (converted)", "value": 3.6, "unit": "h"}, {"measurement": "time above MIC of M. abscessus K21 planktonic cultures", "setting": "[4]; [16]", "value": 67, "unit": "%"}, {"measurement": "time above MIC of M. abscessus biofilms", "setting": "[4]; [16]", "value": "greater than 70%"}, {"measurement": "MIC", "setting": "[5]", "value": 3.8, "unit": "µM"}, {"measurement": "MBC", "setting": "[6]", "value": ">100", "unit": "µM"}, {"measurement": "MBC", "setting": "[6]; Mycobacteroides abscessus", "value": "> 100", "unit": "µM"}, {"measurement": "MIC", "setting": "[7]", "value": 1.1, "unit": "µM"}, {"measurement": "tolerated dose", "setting": "[8]", "value": "up to 550 mg/kg"}, {"measurement": "MIC", "setting": "[9]", "value": 5.2, "unit": "µM"}, {"measurement": "MIC", "setting": "[10]", "value": 0.38, "unit": "µM"}, {"measurement": "MIC", "setting": "[11]", "value": ">100", "unit": "µM"}, {"measurement": "MIC", "setting": "[11]; Mycobacteroides abscessus", "value": "> 100", "unit": "µM"}, {"measurement": "MIC", "setting": "[12]", "value": 4.1, "unit": "µM"}, {"measurement": "frequency of resistance", "setting": "[13]", "value": "1.8 × 10^−8 /CFU"}, {"measurement": "MIC", "setting": "[14]", "value": 3, "unit": "µM"}, {"measurement": "fraction unbound", "setting": "[15]", "value": 0.505}]}]}
